From US4148787A, “Antidiuretically effective polypeptide and a process for preparing the same” (Ferring AB, priority 1976, dated 1979)

Assays:
[1] = Relative antidiuretic activity in relation to DDAVP; assay type: in vivo; conditions: relative activity figure, DDAVP arbitrarily set at 1.00
From the text: (§1) Thus, the strenghts in Table I are expressed as relative activity figures, data for DDAVP as a comparative compound being arbitrarily set at 1.00.

[2] = Relative blood pressure (raising) activity in relation to DDAVP; assay type: in vivo
From the text: as §1

[3] = Relative uterotonic activity in relation to DDAVP; conditions: relative activity figure, DDAVP arbitrarily set at 1.00
From the text: as §1

Row | Compound | Antidiuresis (relative activity) [1] | Blood pressure (relative activity) ([2]; relative activity figure, DDAVP arbitrarily set at 1.00) | Uterotonic (relative activity) [3] | Blood pressure (relative activity) ([2]; in vivo)
1 | NC(=O)CC[C@@H]1NC(=O)[C@H](Cc2ccccc2)NC(=O)[C@H](Cc2ccc(O)cc2)NC(=O)CCSSC[C@@H](C(=O)N2CCC[C@H]2C(=O)N[C@H](CCCN=C(N)N)C(=O)NCC(N)=O)NC(=O)[C@H](CC(N)=O)NC1=O [DDAVP, desamino-D-arginine^8 -vasopressin] | 1.00 | 1.00 | 1.00 | 
2 | NC(=O)CC[C@@H]1NC(=O)[C@H](Cc2ccccc2)NC(=O)[C@H](Cc2ccc(O)cc2)NC(=O)[C@@H](N)CSSC[C@@H](C(=O)N2CCC[C@H]2C(=O)N[C@@H](CCCN=C(N)N)C(=O)NCC(N)=O)NC(=O)[C@H](CC(N)=O)NC1=O [Arg-vasopressin, arginine-vasopressin] | 0.10 |  | 1.0 | 1450
